The test system of the experiment is IL-lb-induced proteoglycan breakdown in bovine nasal cartilage. As to the kind of experiment: in vitro cytokine-induced cartilage degradation assay (Bovine Nasal Septum Cartilage Degradation Assay). The format is cell-based. The note with it: Bos taurus, IL-lb (500 ng/ml), 40 hours, 37° C. As to the method:
The compounds are efficacious in an in vitro cytokine-induced cartilage degradationassay (Arner EC and Pratta MA 1989. Arthritis Rheum 32:288-297). The activity of these compounds in blocking IL-lb-induced proteoglycan breakdown in bovine nasal cartilage was assessed.
Bovine nasal cartilage was incubated in Dulbecco's 10 modified Eagle's Medium (DMEM) containing 5% FCS and antibiotics at 37° C. in an atmosphere of 95% air and 5% CO2 for 40 hours in the absence or presence of IL-lb (500 ng/ml), with or without compound. Compounds were dissolved in DMSO (10^-2M) and further diluted with 15 medial to the required concentration and were included throughout the culture period. At the end of incubation, media were removed and assayed proteoglycan breakdown products using the 1,9 dimethylmethylene blue assay for glycosaminoglycans. Compounds were evaluated for the ability to block the stimulated release of proteoglycan in response to IL-l.

Consider `Cc1ccc(-n2sc(-c3ccccc3)cc2=O)cc1` [Example 1, N-(4-methylphenyl)-5-phenyl-4-isothiazolin-3-one], for which the midpoint of inhibition, the IC50, lay at 13.2 µM.
As to `O=c1c(Br)c(-c2ccccc2)sn1-c1ccccc1` [Example 2, 4-bromo-N,5-diphenyl-4-isothiazolin-3-one], at 30 µM the inhibition was 38%.
On to `O=C(O)c1ccc(-n2sc(-c3ccccc3)cc2=O)cc1` [Example 3, N-(4-carboxyphenyl)-5-phenyl-4-isothiazolin-3-one], for which the inhibition – broadly, the relative decrease from the control value, in per cent – at 30 µM was determined as 19%.
As for `CCOC(=O)c1ccc(-n2sc(-c3ccccc3)cc2=O)cc1` [Example 4, N-(4-carbethoxyphenyl)-5-phenyl-4-isothiazolin-3-one], the half-inhibitory concentration (IC50) (commonly the concentration needed to halve the response being measured) is 8.3 µM.
As to `NC(=O)c1ccc(-n2sc(-c3ccccc3)cc2=O)cc1` [Example 5, N-(4-carboxamidophenyl)-5-phenyl-4-isothiazolin-3-one], the inhibition at 30 µM was found to be 42%.
Molecule `Nc1ccccc1-n1sc(-c2ccccc2)cc1=O` [Example 6, N-(2-aminophenyl) -5-phenyl-4-isothiazolin-3-one] registered an inhibition at 30 µM of 19%.
On to `O=c1cc(-c2ccccc2)sn1-c1ccc(N(S(=O)(=O)C(F)(F)F)S(=O)(=O)C(F)(F)F)cc1` [Example 7, N-(4-(bistrifluoromethane)sulfonamidophenyl)-5-phenyl-4-isothiazolin-3-one], for which 30 µM produced 48% inhibition.
Molecule `O=c1cc(-c2ccccc2)sn1-c1nc2ccccc2s1` [Example 8, N-(2-benzothiazolyl)-5-phenyl-4-isothiazolin-3-one] came in with an IC50 of 15 µM.
For `O=C(O)c1ccc(-c2cc(=O)n(-c3ccccc3)s2)cc1` [Example 9, 5-(4-carboxyphenyl)-N-phenyl-4-isothiazolin-3-one], the inhibition at 30 µM was 18%.
On to `O=c1c(-c2ccccc2)c(-c2ccccc2)sn1-c1ccccc1` [Example 10, 4,5,N-triphenyl-4-isothiazolin-3-one], for which the midpoint of inhibition, the IC50, lay at 43.5 µM.
On the same count and under the same terms, with `O=c1cc(-c2ccccc2Cl)sn1-c1ccccc1` [Example 11] the figure was 11.2 µM; with `COc1ccccc1-c1cc(=O)n(-c2ccccc2)s1` [Example 12], 34.5 µM; with `O=c1cc(-c2ccccc2)sn1-c1ccc(Cl)cc1` [Example 13], 14.8 µM.
Regarding `COc1ccc(-n2sc(-c3ccccc3)cc2=O)cc1` [Example 14], the inhibition at 30 µM is 85%.
The molecule `O=c1cc(-c2ccccc2)sn1-c1ccc(C(F)(F)F)cc1` [Example 15] showed an IC50 of 7.2 µM.
In turn, `O=c1cc(-c2ccccc2)sn1-c1ccc([N+](=O)[O-])cc1` [Example 16] showed a half-maximal inhibitory concentration (IC50) of 31 µM.
Same read-out and setting: under `Cc1cc([N+](=O)[O-])ccc1-n1sc(-c2ccccc2)cc1=O` [Example 17] stands 14 µM.
Still for that read-out and setting: under `N#Cc1ccc(-n2sc(-c3ccccc3)cc2=O)cc1` [Example 18] stands 7.8 µM; under `O=c1cc(-c2ccccc2)sn1-c1cccc(Cl)c1` [Example 19], 11.3 µM; under `COc1cccc(-n2sc(-c3ccccc3)cc2=O)c1` [Example 20], 19 µM.
Still for that read-out and setting: under `O=c1cc(-c2ccccc2)sn1-c1cccc(C(F)(F)F)c1` [Example 21] stands 7 µM.
With `Cc1ccccc1-n1sc(-c2ccccc2)cc1=O` [Example 22], the inhibition at 30 µM was found to be 52%.
The same measure, in the same setting: with `O=c1cc(-c2ccccc2)sn1-c1ccccc1Cl` [Example 23] the figure was 33%.
The same measure, in the same setting: with `COc1ccccc1-n1sc(-c2ccccc2)cc1=O` [Example 24] the figure was 61%.
In turn, `O=c1cc(-c2ccccc2)sn1-c1ccccc1C(F)(F)F` [Example 25] gave an inhibition at 30 µM of 25%.
Same read-out and setting: with `O=c1cc(-c2ccccc2)sn1-c1ccccc1[N+](=O)[O-]` [Example 26, N-(2-nitrophenyl)-5-phenyl-4-isothiazolin-3-one] the figure was 43%.
`O=c1cc(-c2ccc(Cl)cc2)sn1-c1ccccc1` [Example 28] displayed a half-maximal inhibitory concentration (IC50) of 14.8 µM.
On to `O=c1cc(-c2cccc(Cl)c2)sn1-c1ccccc1` [Example 29], for which the IC50 is 18.5 µM.
`COc1ccc(-c2cc(=O)n(-c3ccccc3)s2)cc1` [Example 30] had an inhibition at 30 µM of 37%.
Same read-out and setting: under `O=c1cc(-c2ccc(C(F)(F)F)cc2)sn1-c1ccccc1` [Example 32] stands 25%.
In the case of `O=c1cc(-c2cccc(C(F)(F)F)c2)sn1-c1ccccc1` [Example 33], the 50% inhibitory concentration (IC50) came to 14 µM.
Still for that read-out and setting: with `O=c1cc(-c2ccccc2C(F)(F)F)sn1-c1ccccc1` [Example 34] the figure was 7.2 µM.
Take `O=C(O)c1cccc(-n2sc(-c3ccccc3)cc2=O)c1` [Example 35]: at 30 µM the inhibition was 13%.
Regarding `O=C(O)c1ccccc1-n1sc(-c2ccccc2)cc1=O` [Example 36], the inhibition at 30 µM was determined as 26%.
`CCOC(=O)c1cccc(-n2sc(-c3ccccc3)cc2=O)c1` [Example 37]: the IC50 amounted to 7.8 µM.
On to `CCOC(=O)c1ccccc1-n1sc(-c2ccccc2)cc1=O` [Example 38], for which the concentration for half-maximal inhibition (IC50) was found to be 12 µM.
Take `Nc1ccc(-n2sc(-c3ccccc3)cc2=O)cc1` [Example 39, N-(4-aminophenyl)-5-phenyl-4-isothiazolin-3-one]: at 30 µM the inhibition was 32%.
Still for that read-out and setting: with `Cc1cc(N)ccc1-n1sc(-c2ccccc2)cc1=O` [Example 40] the figure was 14%.
